According to article PMC11995724, “Antibiotic target discovery by integrated phenotypic and activity-based profiling of electrophilic fragments” (Cell chemical biology, 2025):

Test: in vitro
Details: human, hek293t cells
Procedure: Mammalian cytotoxicity measurement was performed using Cell Titer-Glo 2.0 Cell Viability Assay (Promega, G9243) according to the manufacturer protocol. In brief, mammalian cells were seeded into 384-well white plates (Greiner, 781080) and incubated at 37°C for one day. Compounds from the Cys-Library were dispensed into the assay plate using epMotion 96. The plates were then incubated at 37°C for two days. An equal volume of Cell Titer-Glo 2.0 reagent was added into each well of the assay plate using epMotion 96 and incubated at 22°C for 10 min, followed by luminescence measurement using a Cytation 5 plate reader (BioTek).

| Compound | viability at 48 h, 25 µM |
| --- | --- |
| CC(C)Oc1ccc2[nH]cc(C(=O)CCl)c2c1 [10-E03, 2-chloro-1-[5-(propan-2-yloxy)-1H-indol-3-yl]ethan-1-one] | 0.825% |
| COc1ccc(-n2c(C)c(C)c(C#N)c2NC(=O)CCl)cc1 [4-F20, 2-chloro-N-[3-cyano-1-(4-methoxyphenyl)-4,5-dimethyl-1H-pyrrol-2-yl]acetamide] | 0.583% |
| Cc1ccc(C(=O)c2c(NC(=O)CCl)sc3c2CCCC3)cc1 [6-A12, 2-chloro-N-[3-(4-methylbenzoyl)-4,5,6,7-tetrahydro-1-benzothiophen-2-yl]acetamide] | 14% |
| N#CC(=Cc1ccc(C#N)cc1)C(=O)N1CCCC1 [9-P21, 4-[2-cyano-2-(pyrrolidine-1-carbonyl)eth-1-en-1-yl]benzonitrile] | 117% |
| Cc1ccc2[nH]c3c(c2c1)CCCC3N(C)C(=O)CCl (stereo not shown) [6-H07, 2-chloro-N-methyl-N-(6-methyl-2,3,4,9-tetrahydro-1H-carbazol-1-yl)acetamide] | 0.1% |
| C=CC(=O)NCC1CCCC(C2CC2)O1 (stereo not shown) [1-M17, N-[(6-cyclopropyloxan-2-yl)methyl]prop-2-enamide] | 88.7% |
| C=CC(=O)NCC(=O)c1scc(C)c1Cl [1-D16, N-[2-(3-chloro-4-methylthiophen-2-yl)-2-oxoethyl]prop-2-enamide] | 65.2% |
| O=C(CCl)N1CCN(S(=O)(=O)c2ccc([N+](=O)[O-])cc2)CC1 [4-J07, 2-chloro-1-[4-(4-nitrobenzenesulfonyl)piperazin-1-yl]ethan-1-one] | -0.414% |
| Cc1ccc(NC(=O)C(C#N)=Cc2cccc(F)c2)cc1 [8-F11, 2-cyano-3-(3-fluorophenyl)-N-(4-methylphenyl)prop-2-enamide] | 85.7% |
| Cn1cc(C=C(C#N)C(=O)NCc2ccccc2)cn1 [8-J10, N-benzyl-2-cyano-3-(1-methyl-1H-pyrazol-4-yl)prop-2-enamide] | 111% |
| C=CC(=O)NC(c1nc(C)cs1)C1CC1 (stereo not shown) [3-D21, N-[cyclopropyl(4-methyl-1,3-thiazol-2-yl)methyl]prop-2-enamide] | 74.9% |
| Cc1ccc(N(C(=O)CCl)C2C=CS(=O)(=O)C2)cc1 (stereo not shown) [5-K13, 2-chloro-N-(1,1-dioxo-2,3-dihydro-1lambda6-thiophen-3-yl)-N-(4-methylphenyl)acetamide] | 0.562% |
| CC(C)(C)c1ccc(C=C(C#N)C(=O)NCc2ccco2)cc1 [8-L14, 3-(4-tert-butylphenyl)-2-cyano-N-[(furan-2-yl)methyl]prop-2-enamide] | 76.1% |
| C=CC(=O)N1CCC(C(=O)N2CCc3ccccc32)CC1 [1-E09, 1-[4-(2,3-dihydro-1H-indole-1-carbonyl)piperidin-1-yl]prop-2-en-1-one] | 68% |
| O=C(CCl)Nc1cccc(S(=O)(=O)N2CCOCC2)c1 [4-P08, 2-chloro-N-[3-(morpholine-4-sulfonyl)phenyl]acetamide] | 0.715% |
| C=CC(=O)N(CC)CC(=O)N1CCC(c2nnc(C)o2)CC1 [3-A08, N-ethyl-N-{2-[4-(5-methyl-1,3,4-oxadiazol-2-yl)piperidin-1-yl]-2-oxoethyl}prop-2-enamide] | 66.3% |
| C=CC(=O)NC1(C(N)=O)CCCC1C (stereo not shown) [3-B09, 2-methyl-1-(prop-2-enamido)cyclopentane-1-carboxamide] | 54.5% |
| CC(C)NC(=O)C(C#N)=Cc1ccc2c(c1)OCCO2 [9-E11, 2-cyano-3-(2,3-dihydro-1,4-benzodioxin-6-yl)-N-(propan-2-yl)prop-2-enamide] | 118% |
| O=C(CCl)NCCOc1cccc(F)c1 [6-G03, 2-chloro-N-[2-(3-fluorophenoxy)ethyl]acetamide] | 97.9% |

| Compound | viability at 48 h, 25 µM |
| --- | --- |
| CC(Cl)C(=O)Nc1nc2ccccc2s1 (stereo not shown) [5-K05, N-(1,3-benzothiazol-2-yl)-2-chloropropanamide] | 59.9% |
| O=C(CCl)NC1Cc2ccccc2N(C(=O)C(F)(F)F)C1 (stereo not shown) [7-L16, 2-chloro-N-[1-(2,2,2-trifluoroacetyl)-1,2,3,4-tetrahydroquinolin-3-yl]acetamide] | 0.649% |
| CC(C)NC(=O)C(C#N)=Cc1ccc(C(F)(F)F)cc1 [8-L13, 2-cyano-N-(propan-2-yl)-3-[4-(trifluoromethyl)phenyl]prop-2-enamide] | 37.8% |
| Cc1ccc(C=C(C#N)C(=O)Nc2ccc(C(=O)O)cc2)s1 [8-E04, 4-[2-cyano-3-(5-methylthiophen-2-yl)prop-2-enamido]benzoic acid] | 91.5% |
| CC(C)OC(=O)c1ccc(NC(=O)C(C)Cl)cc1 (stereo not shown) [4-K08, propan-2-yl 4-(2-chloropropanamido)benzoate] | 76.3% |
| Cc1cc(C)cc(-n2c(C)cc(C(=O)CCl)c2C)c1 [10-E04, 2-chloro-1-[1-(3,5-dimethylphenyl)-2,5-dimethyl-1H-pyrrol-3-yl]ethan-1-one] | 19.1% |
| C=CC(=O)NCc1nc(C(=O)O)c(C)s1 [1-K03, 5-methyl-2-[(prop-2-enamido)methyl]-1,3-thiazole-4-carboxylic acid] | 80.8% |
| CC(Cl)C(=O)N1CCCc2ccc(N(C)C)cc2C1 (stereo not shown) [7-C15, 2-chloro-1-[8-(dimethylamino)-2,3,4,5-tetrahydro-1H-2-benzazepin-2-yl]propan-1-one] | 82.1% |
| C=CC(=O)NCCc1coc(-c2ccc(C)cc2)n1 [1-M06, N-{2-[2-(4-methylphenyl)-1,3-oxazol-4-yl]ethyl}prop-2-enamide] | 68.3% |
| CC(NC(=O)C(C#N)=Cc1ccco1)c1cccnc1 (stereo not shown) [9-K03, 2-cyano-3-(furan-2-yl)-N-[1-(pyridin-3-yl)ethyl]prop-2-enamide] | 129% |
| COc1ccc(C=C(C#N)C(=O)Nc2cccnc2)cc1OC [8-M05, 2-cyano-3-(3,4-dimethoxyphenyl)-N-(pyridin-3-yl)prop-2-enamide] | 118% |
| CC(C)Oc1ccc(C=C(C#N)C(=O)NC2CCCC2)cc1 [8-O10, 2-cyano-N-cyclopentyl-3-[4-(propan-2-yloxy)phenyl]prop-2-enamide] | 57.5% |
| C=CC(=O)N1CCC(C(=O)N2CCC(c3ncco3)CC2)CC1 [2-B06, 1-{4-[4-(1,3-oxazol-2-yl)piperidine-1-carbonyl]piperidin-1-yl}prop-2-en-1-one] | 78.3% |
| CC(NC(=O)C(C#N)=Cc1cc(F)ccc1F)c1ccccc1 (stereo not shown) [8-O06, 2-cyano-3-(2,5-difluorophenyl)-N-(1-phenylethyl)prop-2-enamide] | 25.3% |
| CC(C)NC(=O)C(C#N)=Cc1ccc(Cl)c([N+](=O)[O-])c1 [8-J08, 3-(4-chloro-3-nitrophenyl)-2-cyano-N-(propan-2-yl)prop-2-enamide] | 0.544% |
| Cc1cc(C(=O)C(C)Cl)c(C)n1Cc1ccco1 (stereo not shown) [10-E06, 2-chloro-1-{1-[(furan-2-yl)methyl]-2,5-dimethyl-1H-pyrrol-3-yl}propan-1-one] | 105% |
| CC(Cl)C(=O)N1CCC(n2c(=O)[nH]c3ccccc32)CC1 (stereo not shown) [6-N05, 1-[1-(2-chloropropanoyl)piperidin-4-yl]-2,3-dihydro-1H-1,3-benzodiazol-2-one] | 109% |
| C=CC(=O)N1CCC(C(=O)NC(C)CC2CC2)CC1 (stereo not shown) [3-M05, N-(1-cyclopropylpropan-2-yl)-1-(prop-2-enoyl)piperidine-4-carboxamide] | 53.3% |
